Test results reported in patent publication US20150238445A1 (CATHOLIC UNIVERSITY INDUSTRY ACADEMIC COOPERATION FOUNDATION, priority 2012, published 2015).

Columns and labels:
[1] = tested on: lupus animal model; test: Serum lupus-specific dsDNA and IgG by ELISA in the lupus animal model; assay type: in vivo, mouse; conditions: oral 100 mg/kg every day
Protocol: At this time, the lupus animal model not treated with metformin was used as the control. […] The analysis of the treatment effect was performed as follows. […] Serum was separated from the blood extracted above. The levels of lupus-specific dsDNA (Sigma, cat no. D8515) and IgG (Sigma) in the separated serum were measured by ELISA. Particularly, 96-well plate was coated with dsDNA or anti-mouse IgG, to which the serum separated from the mouse blood was loaded, followed by reaction. Then, […] was added thereto, followed by reaction. Color development was induced by TMB system and the […] was measured.

[2] = tested on: lupus mouse model; test: Spleen and liver observation (size, GC follicles, inflammatory cell infiltration) in lupus mouse model; assay type: in vivo
Protocol: The size of those spleen and liver was measured by the naked eye, and the size and the number of GC follicle (Germinal Center follicle) were also observed.
The infiltration of inflammatory cells around the blood vessels of liver tissue was also observed.

[3] = tested on: pathogenic B cells; test: FACS and staining of spleen cells for pathogenic B cells, GC and THF in lupus mouse model; assay type: in vivo
Text: Then, spleen cells were separated therefrom and B cell was observed. Particularly, the representative pathogenic B cells, B220−CD138+ long lived plasma B cell and GL7+B220+ germinal center B cell, were observed. For the observation, the spleen cells separated from each group were stained with CD138 and B220 and the […] were stained with GL7 and B220, followed by FACS to examine the expression of each cell.

[4] = tested on: pathogenic B cell; test: IgG production by LPS-stimulated B cell; assay type: cell-based, mouse; conditions: metformin 1 μM, 2 μM, and 5 μM; LPS 1 μg/ml
Protocol: Then, the level of IgG produced by B cell of the mouse was measured by the same manner as described in Example 1.

[5] = tested on: B cell; test: B cell differentiation stages after LPS and metformin for 3 days, FACS; assay type: cell-based
Protocol: FACS was performed to observe any changes of the cell in each stage of B cell differentiation.

[6] = tested on: regulatory T cell and Th17 cell; test: Regulatory T cell and Th17 cell activity in lupus animal model; assay type: in vivo; conditions: vs control group
[7] = tested on: TFH cell; test: TFH cell expression in spleen tissue, confocal staining, lupus animal model; assay type: in vivo, mouse; conditions: intraperitoneal injection 3 times a week; 5 weeks after the administration
Protocol: Particularly, CD4-PerCP, B220-APC, GL-7-FITC, and IOCS-PE fluorescence staining was performed. Then, TFH cells expressing GL-7+ICOS+ in CD4 T cells were examined under fluorescent microscope.

[8] = tested on: Th17 cell; test: Th17 differentiation of CD4+ T cells from lupus mouse spleen: FACS, real-time PCR, IL-17 ELISA; assay type: cell-based; conditions: 3 days
Protocol: Particularly, T cells were separated from the spleen of the lupus mouse model by using CD4+ microbeads. […] Upon completion of the culture, some of the cultured cells were stained with CD4-PerCP and ILo-17 PE, followed by FACS. RNA was separate from the remaining cells, from which Th17 cell related gene was amplified by real-time PCR. The expression of IL-17 in the culture solution was analyzed by ELISA (antigen-antibody examination).

[9] = tested on: mTOR/STAT3; test: mTOR/STAT3 signalling in T cells from lupus animal model spleen, Western blotting and confocal staining; assay type: cell-based
Protocol: (§1) Particularly, T cells were separated from the spleen cells of the lupus animal model. […] To analyze signal molecules in the cultured cells, protein was extracted from each condition of the cells. Western blotting was performed with the extracted protein. The protein separated by size was conjugated with each antibody against p-AMPK, AMPK, p-mTOR, mTOR, p-STAT3 705, p-STAST3 727, STAT3, p-STAT5, STAT5, and β-actin. The activity of each molecule was evaluated. Some of the cultured cells were conjugated with p-AMPK, AMPK, p-mTOR, p-STAT3 705, p-STAT3 727, and p-p53 fluorescent antibodies, whose expressions were examined under fluorescent microscope after confocal staining
In addition, nucleus and cytoplasm were separated in order to examine the expression of NrF2 in the nucleus and cytoplasm. Electrophoresis was performed and then Nrf2, tubulin, and β-actin were analyzed by Western blotting.

[10] = tested on: autophagy; test: Autophagy molecules and IL-17/Foxp3 in T cells under Th17 differentiation, Western blotting and confocal staining; assay type: cell-based; conditions: 1 mM metformin, 24 hours
Protocol: as §1, with “ATG5, p62,” for “p-AMPK, AMPK, p-mTOR, mTOR, p-STAT3 705, p-STAST3 727, STAT3, p-STAT5, STAT5,”, “3-actin.” for “β-actin.”, “DAPI, IL-17,” for “p-AMPK, AMPK, p-mTOR, p-STAT3 705, p-STAT3 727,”, “Foxp3” for “p-p53”, “staining.” for “staining”

[11] = tested on: Th17 cell; test: Th17 cytokine ELISA and electron microscopy with autophagy activity inhibitor in T cells of lupus mouse model; assay type: cell-based
Protocol: Thus, the present inventors investigated whether or not the activation of autophagy could be directly involved in the suppression of Th17 cell by using an autophagy activity inhibitor. Particularly, T cells were separated from the spleen cells of the lupus mouse model. […] Upon completion of the culture, IL-17, IL-21, and TNF-α cytokines in the culture solution were analyzed by ELISA. Some of those cultured cells were observed under electron microscope to directly observe the activated autophagy therein.

[12] = tested on: undifferentiated B cell; test: Differentiation of undifferentiated B cell into regulatory B cell (Breg); assay type: cell-based; conditions: undifferentiated B cell treated with metformin
Text: As a result, the numbers of both IL-10+ B cell and Foxp3+ B cell were all increased.

[13] = vs lupus group not treated with metformin
[14] = oral 100 mg/kg every day for 3 weeks, spleen cells, FACS, vs control
[15] = staining of spleen cells, vs lupus mouse model not treated
[16] = real-time PCR, Th17 differentiation
[17] = 1 mM metformin with IL-6 or IL-2 (10 ng/ml), 24 hours

SMILES: CN(C)C(=N)NC(=N)N [metformin]
- level of IgG in serum [1, 13]: significantly reduced
- level of lupus-specific dsDNA in serum [1, 13]: significantly reduced
- level of lupus-specific dsDNA in serum compared with normal mouse group ([1]; vs normal (wild type) mouse group): rather lower than that of the normal mouse group
- size and number of GC follicle ([2]; spleen, vs group not treated with metformin): significantly decreased
- size of spleen ([2]; vs group not treated with metformin): significantly reduced
- infiltration of inflammatory cells around the blood vessels of liver tissue ([2]; vs lupus mouse group not treated with metformin): hardly observe
- B220-CD138+ long lived plasma B cell [3, 14]: significantly reduced
- GL7+B220+ germinal center B cell [3, 14]: significantly reduced
- number of follicular B helper T cells (THF) [3, 15]: also reduced
- size of GC [3, 15]: significantly reduced
- IgG production in B cell [4]: reduced by metformin dose-dependently
- germinal center B cell [5]: suppressed by metformin dose-dependently
- pre-long lived plasma cell B220+CD138 low cell [5]: suppressed by metformin dose-dependently
- pro/preB cell in the stage of early B cell differentiation [5]: suppressed by metformin dose-dependently
- activity of Th17 [6]: decreased
- activity of regulatory T cell [6]: increased
- expression of TFH cell expressing ICOS in the spleen tissue [7]: suppressed
- expression of IL-17 ([8]; Th17 differentiation condition, metformin 0.1, 1, and 5 mM, FACS and ELISA): regulated by metformin
- expression of Foxp3 gene [8, 16]: increased
- expression of Th-17 related gene Ahr [8, 16]: suppression
- expression of Th-17 related gene IL-17 [8, 16]: suppression
- expression of Th-17 related gene IL-21 [8, 16]: suppression
- expression of Th-17 related gene RUNX1 [8, 16]: suppression
- expression of Th-17 related gene TNF-α [8, 16]: suppression
- AMPK activity [9, 17]: activated
- mTOR/STAT3 activity [9, 17]: suppression
- expression of NrF2 ([9]; 1 mM metformin, nucleus and cytoplasm, Western blotting): increased
- ATG5 (autophagy activating molecule) ([10]; Western blotting): activate
- p62 (autophagy activating molecule) ([10]; Western blotting): activate
- expression of Foxp3 ([10]; confocal staining): increase
- expression of IL-17 ([10]; confocal staining): suppress
- suppressed IL-17 expression when the autophagy inhibitor was co-treated ([11]; 1 mM metformin plus 10 μM bafilomycin or methyladenine, 72 hours, ELISA): increased
- expression of IL-17 ([11]; 1 mM metformin, Th17 differentiation, 72 hours, ELISA): suppressed
- intracellular activation of autophagy ([11]; electron microscope): directly confirmed
- number of Foxp3+ B cell [12]: increased
- number of IL-10+ B cell [12]: increased
